Article PMC11956017, “Design of Benzyl-triazolopyrimidine-Based NADPH Oxidase Inhibitors Leads to the Discovery of a Potent Dual Covalent NOX2/MAOB Inhibitor” (Journal of Medicinal Chemistry, 2025)
“Also recorded” adds a separate entry of the source.

Biological target: T1, bovine albumin (Bos taurus, UniProt P02769)
T1 construct: Bovine serum albumin (BSA, Sigma Aldrich, A7030); purchased Sigma Aldrich A7030; host or cells: bovine serum
Assay: Native mass spectrometry of BSA reactivity
Format: binding
Conditions: BSA 1 µM, compound 5 µM and 20 µM, pH 7.5, 30 minutes
Procedure: Protein samples were buffer-exchanged into 200 mM ammonium acetate (pH 7.5) through dialysis prior to native MS analyses. These samples were directly introduced into the mass spectrometer using gold-coated capillary needles prepared in-house.[63] Data were collected on a Q Exactive UHMR hybrid quadrupole-Orbitrap mass spectrometer (Thermo Fisher) with positive polarity. The instrument parameters used for MS spectra collection were the following: capillary voltage, 1.2 kV; scan range from 1000 to 20,000 m/z; HCD collision energy, 0–100 V; source fragmentation, 0 V; in-source trapping, 0 V. The ion transfer optics was set as follows: injection flatapole, 5 V; interflatapole lens, 4 V; bent flatapole, 2 V; transfer multipole, 0 V. The resolution of the instrument was 17,500 at m/z = 200 (transient time of 64 ms), the nitrogen pressure in the HCD cell was maintained at approximately 4 × 10^–10 mbar, and the source temperature was kept at 100 °C. The noise level was set at 3 rather than the default value of 4.64. Calibration of the instruments was performed using 10 mg/mL solution of cesium iodide in water. Data were analyzed using Xcalibur 3.0 (Thermo Scientific), NaViA,[64] and UniDec software packages.[65]

T1 sequence (P02769 25-607): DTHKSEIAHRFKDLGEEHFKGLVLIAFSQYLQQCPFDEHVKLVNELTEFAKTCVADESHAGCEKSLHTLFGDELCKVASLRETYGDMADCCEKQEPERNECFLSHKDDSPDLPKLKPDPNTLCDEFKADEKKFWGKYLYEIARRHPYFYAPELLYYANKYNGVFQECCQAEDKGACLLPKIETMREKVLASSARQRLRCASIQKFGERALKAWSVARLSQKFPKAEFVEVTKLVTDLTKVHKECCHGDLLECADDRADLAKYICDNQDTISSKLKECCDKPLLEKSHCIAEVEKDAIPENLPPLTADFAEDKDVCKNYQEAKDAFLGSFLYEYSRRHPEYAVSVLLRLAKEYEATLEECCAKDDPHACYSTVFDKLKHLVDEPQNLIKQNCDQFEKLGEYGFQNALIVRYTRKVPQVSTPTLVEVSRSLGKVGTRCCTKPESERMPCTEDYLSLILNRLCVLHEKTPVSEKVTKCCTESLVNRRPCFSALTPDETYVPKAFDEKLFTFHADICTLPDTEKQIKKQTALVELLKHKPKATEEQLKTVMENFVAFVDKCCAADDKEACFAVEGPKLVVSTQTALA

- adduct formation with bovine serum albumin: no adduct; also recorded: did not bind
SMILES: C#CCN(C)Cc1ccc(Cn2nnc3c(Sc4nc5ccccc5o4)ncnc32)cc1 [Compound 9a, N-(4-((7-(Benzo[d]oxazol-2-ylthio)-3H-[1,2,3]triazolo[4,5-d]pyrimidin-3-yl)methyl)benzyl)-N-methylprop-2-yn-1-amine]
